The target of one test is T1, CDK9 (Homo sapiens, UniProt P50750).
T1 construct: made in house; host or cells: E. coli BL21-derived host (T7 phage) or HEK-293 cells
The experiment in a line: Kinome screen, CDK9. Type of test: binding. The settings on record: screened at 1 μM. The procedure: Compounds 1 and C-1 were screened against other kinases to evaluate their selectivity profile.
Kinase-tagged T7 phage strains were grown in parallel in 24-well blocks in an E. coli host derived from the BL21 strain. E. coli were grown to log-phase and infected with T7 phage from a frozen stock (multiplicity of infection=0.4) and incubated with shaking at 32° C. until lysis (90-150 minutes). The lysates were centrifuged (6,000×g) and filtered (0.2 μm) to remove cell debris. The remaining kinases were produced in HEK-293 cells and subsequently tagged with DNA for qPCR detection.
Streptavidin-coated magnetic beads were treated with biotinylated small molecule ligands for 30 minutes at room temperature to generate affinity resins for kinase assays. The liganded beads were blocked with excess biotin and washed with blocking buffer (SeaBlock (Pierce), 1% BSA, 0.05% Tween 20, 1 mM DTT) to remove unbound ligand and to reduce non-specific phage binding. Binding reactions were assembled by combining kinases, liganded affinity beads, and test compounds in 1× binding buffer (20% SeaBlock, 0.17×PBS, 0.05% Tween 20, 6 mM DTT). Test compounds were prepared as 40× stocks in 100% DMSO and directly diluted into the assay. All reactions were performed in polypropylene 384-well plates in a final volume of 0.04 ml. […] The kinase concentration in the eluates was measured by qPCR. […]

The test system of test [1] is IL-6 stimulated CCL2 (MCP-1) production in human PBMCs. The experiment in a line: Inhibition of IL-6 stimulated CCL2 (MCP-1) in human PBMCs. Type of test: cell-based. The settings on record: PBMC, 48 h stimulation, ELISA, read-out: pIC50, inhibition of IL-6 stimulated CCL2 (MCP-1) (converted). The procedure: The potency of the test compound for inhibition of interleukin-6 (IL-6) stimulated CCL2 (MCP-1) production was measured in human peripheral blood mononuclear cells (PBMCs) isolated from human whole blood (Stanford Blood Center). Because IL-6 signals through JAK, this assay provides a distal measure of JAK cellular potency.
(1) The protocol of Assay 4 paragraph (1) was followed up to the incubation with test compounds. In the present assay, after test compounds were added to wells and incubated, IL-6 (R&D Systems; final concentration 10 ng/ml) in pre-warmed assay media (50 μL) was added.
(2) After cytokine stimulation for 48 h, cells were centrifuged at 500 g for 5 min and supernatants were removed and frozen at −80° C. To determine the inhibitory potency of the test compound in response to IL-6, supernatant CCL2 (MCP-1) concentrations were measured via ELISA (R&D Systems). IC50 values were determined from analysis of the inhibition curves of concentration of CCL2/MCP-1 vs compound concentration. Data are expressed as pIC50 (negative decadic logarithm IC50) values.
(In general: ELISA stands for enzyme-linked immunosorbent assay.)

For test [2], the system named is IL-2 stimulated STAT5 phosphorylation in Tall-1 human T cell line. The test is described as follows: Inhibition of IL-2 stimulated pSTAT5 in Tall-1 T cells. Type of test: cell-based. The settings on record: AlphaLisa, read-out: pIC50, inhibition of IL-2 stimulated pSTAT5 (converted). On the procedure:
The potency of test compounds for inhibition of interleukin-2 (IL-2) stimulated STAT5 phosphorylation was measured in the Tall-1 human T cell line (DSMZ) using AlphaLisa. Because IL-2 signals through JAK1/3, this assay provides a measure of JAK1/3 cellular potency.
Phosphorylated STAT5 was measured via the AlphaLISA SureFire Ultra pSTAT5 (Tyr694/699) kit (PerkinElmer). Human T cells from the Tall-1 cell line were cultured in a 37° C., 5% CO2 humidified incubator in RPMI (Life Technologies) supplemented with 15% Heat Inactivated Fetal Bovine Serum (FBS, Life Technologies), 2 mM Glutamax (Life Technologies), 25 mM HEPES (Life Technologies) and 1× Pen/Strep (Life Technologies). Compounds were serially diluted in DMSO and dispensed acoustically to empty wells. […] Phosphorylated STAT5 was measured via the pSTAT5 AlphaLisa kit (PerkinElmer). […] Luminescence was measured with excitation at 689 nm and emission at 570 nm using an EnVision plate r reader (PerkinElmer) under green filtered <100 lux light.
To determine the inhibitory potency of test compounds in response to IL-2, the average emission intensity of beads bound to pSTAT5 was measured in a human T cell line. IC50 values were determined from analysis of the inhibition curves of signal intensity versus compound concentration. Data are expressed as pIC50 (negative decadic logarithm IC50) values (mean±standard deviation).
(Alpha assays give light when donor and acceptor beads are brought close together.)

T1 sequence (P50750 whole entry): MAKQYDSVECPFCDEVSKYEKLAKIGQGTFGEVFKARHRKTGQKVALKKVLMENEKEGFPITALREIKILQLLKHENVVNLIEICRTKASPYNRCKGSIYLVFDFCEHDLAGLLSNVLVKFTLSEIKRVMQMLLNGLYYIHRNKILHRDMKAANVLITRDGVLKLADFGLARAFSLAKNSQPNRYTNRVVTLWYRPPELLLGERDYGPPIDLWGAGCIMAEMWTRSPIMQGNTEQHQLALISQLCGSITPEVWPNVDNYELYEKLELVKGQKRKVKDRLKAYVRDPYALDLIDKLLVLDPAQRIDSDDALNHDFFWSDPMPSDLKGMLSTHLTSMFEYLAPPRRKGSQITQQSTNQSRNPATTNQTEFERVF

Usually inhibition stands for the percentage by which the read-out fell short of the control. Low readings indicate little suppression, high ones strong suppression. Take `CCc1cc(O)c(F)cc1-c1cc(F)c2c(-c3nc4c([nH]3)CCN(C(=O)[C@]35C[C@H]3CCN5)C4)n[nH]c2c1` [Compound 1, (1S,5R)-2-azabicyclo[3.1.0]hexan-1-yl(2-(6-(2-ethyl-5-fluoro-4-hydroxyphenyl)-4-fluoro-1H-indazol-3-yl)-6,7-dihydro-3H-imidazo[4,5-c]pyridin-5(4H)-yl)methanone]: at 1 µM the inhibition against CDK9 was 13%. For the same compound, the IC50 is 316 nM in test [1] and 15.8 nM in test [2].

For the origin of these results see US10968222B2, “2-azabicyclo hexane JAK inhibitor compound” (THERAVANCE BIOPHARMA R&D IP, LLC, priority 2018, dated 2021).
